Results: patent US20170334899A1, “AMINO-SUBSTITUTED ISOTHIAZOLES” (Bayer Pharma Aktiengesellschaft, priority 2014, published 2017)

System: human cervical tumor cell line HeLa (ATCC CCL-2)
Assay: SAC-Formation - Nocodazole-Induced Assay
Type: cell-based
Details: Homo sapiens, HeLa, 24 h, HeLa cells, nocodazole 0.1 μg/ml together with test compound, decrease of mitotic cells (phospho-histone H3 Ser10)
Summary of the method: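 Loss of phospho-histone H3 Ser10-positive cells, counted against Hoechst-stained nuclei by high-content imaging, marked mitotic breakthrough. Compounds (0.005–20 μM, 0.5% DMSO) were co-dosed with 0.1 μg/ml nocodazole onto HeLa cells for 24 h at 37 °C. Curves were fitted with a four-parameter Hill equation.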

| Structure (SMILES) | IC50 |
| --- | --- |
| CCNC(=O)c1cccc(NC(=O)c2c(C)nsc2Nc2cnc3ccccc3n2)c1 [Example 251, N-[3-(ethylcarbamoyl)phenyl]-3-methyl-5-(quinoxalin-2-ylamino)-1,2-thiazole-4-carboxamide] | 1500 nM |
| Cc1nsc(Nc2cnc(C(F)(F)F)cn2)c1C(=O)Nc1cccc(NC(=O)OC(C)(C)C)c1 [Example 284, 3-tert-butyl (3-{[(3-methyl-5-{[5-(trifluoromethyl)pyrazin-2-yl]amino}-1,2-thiazol-4-yl)carbonyl]amino}phenyl)carbamate] | 76 nM |
| Cc1nsc(Nc2cncc(C(F)(F)F)n2)c1C(=O)Nc1ccc(C(=O)N2CCN(CC(F)(F)F)CC2)cc1 [Example 272, 3-methyl-N-(4-{[4-(2,2,2-trifluoroethyl)piperazin-1-yl]carbonyl}phenyl)-5-{[6-(trifluoromethyl)pyrazin-2-yl]amino}-1,2-thiazole-4-carboxamide] | 230 nM |
| Cc1nsc(Nc2cnc3ccccc3n2)c1C(=O)Nc1cccc(NS(=O)(=O)C2CN(CCC(F)(F)F)C2)c1 [Example 288, 3-methyl-5-(quinoxalin-2-ylamino)-N-[3-({[1-(3,3,3-trifluoropropyl)azetidin-3-yl]sulfonyl}amino)phenyl]-1,2-thiazole-4-carboxamide] | 7700 nM |
| CCN1CCN(C(=O)c2ccc(NC(=O)c3c(C)nsc3Nc3cncc(C(F)(F)F)n3)cc2)CC1 [Example 275, N-{4-[(4-ethylpiperazin-1-yl)carbonyl]phenyl}-3-methyl-5-{[6-(trifluoromethyl)pyrazin-2-yl]amino}-1,2-thiazole-4-carboxamide] | 840 nM |
| Cc1nsc(Nc2cnc3ccccc3n2)c1C(=O)Nc1cccc(NS(=O)(=O)C2CCN(CC(F)(F)F)CC2)c1 [Example 281, 3-methyl-5-(quinoxalin-2-ylamino)-N-[3-({[1-(2,2,2-trifluoroethyl)piperidin-4-yl]sulfonyl}amino)phenyl]-1,2-thiazole-4-carboxamide] | 1200 nM |
| Cc1nsc(Nc2cnc(C(F)(F)F)cn2)c1C(=O)Nc1ccc(N(C)C)c(OCCCN(C)CCC(F)(F)F)c1 [Example 300, N-[4-(dimethylamino)-3-{3-[methyl(3,3,3-trifluoropropyl)amino]propoxy}phenyl]-3-methyl-5-{[5-(trifluoromethyl)pyrazin-2-yl]amino}-1,2-thiazole-4-carboxamide] | 440 nM |
| Cc1nsc(Nc2cnc3ccccc3n2)c1C(=O)Nc1cccc(NS(=O)(=O)C2CN(CCF)C2)c1 [Example 287, N-[3-({[1-(2-fluoroethyl)azetidin-3-yl]sulfonyl}amino)phenyl]-3-methyl-5-(quinoxalin-2-ylamino)-1,2-thiazole-4-carboxamide] | 7200 nM |
| Cc1nsc(Nc2cnc3ccccc3n2)c1C(=O)Nc1cccc(NS(=O)(=O)C2CCN(CC(F)F)CC2)c1 [Example 282, N-[3-({[1-(2,2-difluoroethyl)piperidin-4-yl]sulfonyl}amino)phenyl]-3-methyl-5-(quinoxalin-2-ylamino)-1,2-thiazole-4-carboxamide] | 6700 nM |
| Cc1nsc(Nc2cnc(C(F)(F)F)cn2)c1C(=O)Nc1ccc(C(=O)NC2CCN(CC(F)F)CC2)cc1 [Example 259, N-(4-{[1-(2,2-difluoroethyl)piperidin-4-yl]carbamoyl}phenyl)-3-methyl-5-{[5-(trifluoromethyl)pyrazin-2-yl]amino}-1,2-thiazole-4-carboxamide] | 400 nM |
| Cc1nsc(Nc2cnc(C(F)(F)F)cn2)c1C(=O)Nc1ccc(N(C)C)c(OCCCN(C)CC(F)(F)F)c1 [Example 299, N-[4-(dimethylamino)-3-{3-[methyl(2,2,2-trifluoroethyl)amino]propoxy}phenyl]-3-methyl-5-{[5-(trifluoromethyl)pyrazin-2-yl]amino}-1,2-thiazole-4-carboxamide] | 210 nM |
| Cc1nsc(Nc2cnc(C(F)(F)F)cn2)c1C(=O)Nc1ccc(C(=O)N2CCN(CC(F)(F)F)CC2)cc1 [Example 260, 3-methyl-N-(4-{[4-(2,2,2-trifluoroethyl)piperazin-1-yl]carbonyl}phenyl)-5-{[5-(trifluoromethyl)pyrazin-2-yl]amino}-1,2-thiazole-4-carboxamide] | 87 nM |
| Cc1nsc(Nc2cnc3ccccc3n2)c1C(=O)Nc1cccc(NS(=O)(=O)C2CCCN(C(=O)OCc3ccccc3)C2)c1 (centres unmarked) [Example 291, benzyl 3-{[3-({[3-methyl-5-(quinoxalin-2-ylamino)-1,2-thiazol-4-yl]carbonyl}amino)phenyl]sulfamoyl} piperidine-1-carboxylate] | 1400 nM |

Next, values leading:

| IC50 | Structure (SMILES) |
| --- | --- |
| 4.3 nM | Cc1nsc(Nc2cnc(C(F)(F)F)cn2)c1C(=O)Nc1ccc(F)c(OC2CCN(CC(F)(F)F)C2)c1 (centres unmarked) [Example 315, N-(4-fluoro-3-{[1-(2,2,2-trifluoroethyl)pyrrolidin-3-yl]oxy}phenyl)-3-methyl-5-{[5-(trifluoromethyl)pyrazin-2-yl]amino}-1,2-thiazole-4-carboxamide] |
| 2800 nM | Cc1nsc(Nc2cc(C#N)ccn2)c1C(=O)Nc1cccc(C(=O)NC(C)C)c1 [Example 254, 5-[(4-cyanopyridin-2-yl)amino]-N-[3-(isopropylcarbamoyl)phenyl]-3-methyl-1,2-thiazole-4-carboxamide] |
| 20000 nM | Cc1nsc(Nc2cc(C#N)ccn2)c1C(=O)Nc1ccc(OC2CCNCC2)nc1 [Example 24, 5-[(4-Cyanopyridin-2-yl)amino]-3-methyl-N-[6-(piperidin-4-yloxy)pyridin-3-yl]-1,2-thiazole-4-carboxamide] |
| 130 nM | Cc1nsc(Nc2cncc(C(F)(F)F)n2)c1C(=O)Nc1ccc(OC2CCN(CCC(F)(F)F)CC2)nc1 [Example 304, 3-methyl-5-{[6-(trifluoromethyl)pyrazin-2-yl]amino}-N-(6-{[1-(3,3,3-trifluoropropyl)piperidin-4-yl]oxy}pyridin-3-yl)-1,2-thiazole-4-carboxamide] |
| 31 nM | Cc1nsc(Nc2cnc(C(F)(F)F)cn2)c1C(=O)Nc1ccc(F)c(OCC2CCN(CC(F)F)CC2)c1 [Example 308, N-(3-{[1-(2,2-difluoroethyl)piperidin-4-yl]methoxy}-4-fluorophenyl)-3-methyl-5-{[5-(trifluoromethyl)pyrazin-2-yl]amino}-1,2-thiazole-4-carboxamide] |
| 47 nM | Cc1nsc(Nc2cncc(C(F)(F)F)n2)c1C(=O)Nc1ccc(F)c(OC2CCN(CC(F)(F)F)CC2)c1 [Example 267, N-(4-fluoro-3-{[1-(2,2,2-trifluoroethyl)piperidin-4-yl]oxy}phenyl)-3-methyl-5-{[6-(trifluoromethyl)pyrazin-2-yl]amino}-1,2-thiazole-4-carboxamide] |
| 730 nM | Cc1nsc(Nc2cnc3ccccc3n2)c1C(=O)Nc1ccc(N2CCN(C(=O)OC(C)(C)C)CC2)nc1 [Example 248, tert-butyl 4-[5-({[3-methyl-5-(quinoxalin-2-ylamino)-1,2-thiazol-4-yl]carbonyl}amino)pyridin-2-yl]piperazine-1-carboxylate] |
| 1600 nM | COC(=O)CCCc1ccc(NC(=O)c2c(C)nsc2Nc2cc(C#N)ccn2)cc1 [Example 256, methyl 4-{4-[({5-[(4-cyanopyridin-2-yl)amino]-3-methyl-1,2-thiazol-4-yl}carbonyl)amino]phenyl}butanoate] |
| 130 nM | Cc1nsc(Nc2cnc(C(F)(F)F)cn2)c1C(=O)Nc1ccc(F)c(OCC2CCN(CCC(F)(F)F)CC2)c1 [Example 311, N-(4-fluoro-3-{[1-(3,3,3-trifluoropropyl)piperidin-4-yl]methoxy}phenyl)-3-methyl-5-{[5-(trifluoromethyl)pyrazin-2-yl]amino}-1,2-thiazole-4-carboxamide] |
| 190 nM | Cc1nsc(Nc2cncc(C(F)(F)F)n2)c1C(=O)Nc1ccc(OCCCO)nc1 [Example 278, N-[6-(3-hydroxypropoxy)pyridin-3-yl]-3-methyl-5-{[6-(trifluoromethyl)pyrazin-2-yl]amino}-1,2-thiazole-4-carboxamide] |
| 49 nM | Cc1nsc(Nc2cc(C#N)ccn2)c1C(=O)Nc1ccc(OC2CCN(C(=O)OC(C)(C)C)CC2)nc1 [Example 23, tert-Butyl 4-({5-[({5-[(4-cyanopyridin-2-yl)amino]-3-methyl-1,2-thiazol-4-yl}-carbonyl)amino]pyridin-2-yl}oxy)piperidine-1-carboxylate] |
| 69 nM | Cc1nsc(Nc2cnc(C(F)(F)F)cn2)c1C(=O)Nc1ccc(OCCNCC(F)(F)F)nc1 [Example 322, 3-methyl-N-(6-{2-[(2,2,2-trifluoroethyl)amino]ethoxy}pyridin-3-yl)-5-{[5-(trifluoromethyl)pyrazin-2-yl]amino}-1,2-thiazole-4-carboxamide] |
| 190 nM | Cc1nsc(Nc2cnc(C(F)(F)F)cn2)c1C(=O)Nc1ccc(F)c(OC2CCN(CC(F)F)CC2)c1 [Example 265, N-(3-{[1-(2,2-difluoroethyl)piperidin-4-yl]oxy}-4-fluorophenyl)-3-methyl-5-{[5-(trifluoromethyl)pyrazin-2-yl]amino}-1,2-thiazole-4-carboxamide] |
| 59 nM | Cc1nsc(Nc2cnc(C(F)(F)F)cn2)c1C(=O)Nc1ccc(F)c(OCC2CCN(CC(F)(F)F)CC2)c1 [Example 310, N-(4-fluoro-3-{[1-(2,2,2-trifluoroethyl)piperidin-4-yl]methoxy}phenyl)-3-methyl-5-{[5-(trifluoromethyl)pyrazin-2-yl]amino}-1,2-thiazole-4-carboxamide] |
| 16 nM | Cc1nsc(Nc2cc(C#N)ccn2)c1C(=O)Nc1ccc(OC2CCN(CC(F)(F)F)CC2)nc1 [Example 25, 5-[(4-Cyanopyridin-2-yl)amino]-3-methyl-N-(6-{[1-(2,2,2-trifluoroethyl)piperidin-4-yl]oxy}pyridin-3-yl)-1,2-thiazole-4-carboxamide] |
| 590 nM | Cc1nsc(Nc2cnc(C(F)(F)F)cn2)c1C(=O)Nc1ccc(OC2CCN(CCF)C2)nc1 (centres unmarked) [Example 295, N-(6-{[1-(2-fluoroethyl)pyrrolidin-3-yl]oxy}pyridin-3-yl)-3-methyl-5-{[5-(trifluoromethyl)pyrazin-2-yl]amino}-1,2-thiazole-4-carboxamide] |
